In data set [1] the test system is MPXV strain hMPXV/USA/MA001/2022 (Lineage B.1, Clade IIb). The format is cell-based, Mpox virus (MPXV).
In data set [2] the test system is MPXV. Details: species or system C57BL/6 mice. As to conditions: mouse, in vivo.
Data set [3] concerns MPXV (2022 Clade IIb). The data set can be described thus: microbe, parasite or virus in culture. In kind it is cell-based, Mpox virus (MPXV). As to conditions: Monkeypox virus, read-out: IC50 (inhibition of MPXV infection).
Data set [4] has as its system MPXV (2022 Clade IIb). The format is cell-based, Mpox virus (MPXV).
The nature of the next data set: in vitro. As to conditions: human.
The conditions of data set [5]: in vivo; cited from earlier work.
Data set [6] concerns MPXV. The conditions noted are these: cited from earlier work.
In data set [7] the test system is MPXV. The conditions noted are these: in vivo; cited from earlier work.
For data set [8] the following is noted: human, in vivo; cited from earlier work.
A further data set has as its system Mpox-related lesions. As to conditions: human, in vivo; cited from earlier work.
A further data set concerns MPXV Clade IIb. In kind it is cell-based, Mpox virus (MPXV).
The test system of data set [9] is MPXV. In kind it is cell-based, Mpox virus (MPXV).
A further data set has as its system cowpox virus. As to conditions: cited from earlier work.
The next data set deals with vaccinia virus. The conditions noted are these: cited from earlier work.
In another data set the test system is phospho-NF-κB. The format is cell-based, human.
For another data set, the system named is phospho-STING. In kind it is cell-based, human.

Data on 24 compounds can be found in doi:10.1101/2025.05.02.651913 (bioRxiv, 2025).

Read-outs that look alike come from different tables or passages of the source.

The term IC50 denotes the midpoint of a concentration-inhibition curve.

As to `CCNC(=O)N1CCc2cc(OC)c(OCCc3ccc(OC)c(N)c3)cc2C1c1ccc(OC)cc1C` (centres unmarked) [KRAS inhibitor-10], the “Duplicate of Duplicate of Hits: No CPE” value in data set [1] was found to be 1. Also, in the data set with MPXV [2], the “skin inflammation and lesions at Day 3” value was “some low-grade inflammation and lesions”; the “skin inflammation and lesions at Day 12” value is given as “fully resolved”. In the data set with VK2/E6E7 cells, the CC50 is more than 1000 nM and the “nontoxic up to a concentration” value is given as not above 1000 nM.

`CC(C)n1nc(-c2ccc3oc(N)nc3c2)c2c(N)ncnc21` [INK-128, Sapanisertib]: the “Duplicate of Duplicate of Hits: No CPE” value in data set [1] was determined as 1. Moreover, in the data set on MPXV (2022 Clade IIb) [3], the IC50 is 27.1 nM. Moreover, in the data set with MPXV (2022 Clade IIb) [4], the “antiviral activity at lower concentrations” value is reported as “potent antiviral activity”. Also, the CC50 in “in vitro” came to 353 nM. The “concentration at which toxicity was shown” value in the data set on VK2/E6E7 cells (human) was 80 to 100 nM.

On to `Cc1ccc(C(=O)Nc2ccc(CN3CCN(C)CC3)c(C(F)(F)F)c2)cc1C#Cc1cnc2[nH]ncc2c1` [GZD824, Olverembatinib (dimesylate)], for which the “Duplicate of Duplicate of Hits: No CPE” value in data set [1] was 1. Further, the “antiviral activity at lower concentrations” value with MPXV (2022 Clade IIb) [4] was “potent antiviral activity”.

As for `NC(=O)c1ncn([C@@H]2O[C@H](CO)[C@@H](O)[C@H]2O)n1` [Ribavirin], the “adverse effect in humans” value in data set [5] is “severe bone marrow suppression”. The “MPXV replication in vitro” value with MPXV [6] is on record as “block MPXV replication”. In the data set with MPXV [7], the “MPXV replication in mouse models” value is “block MPXV replication”.

For the compound `CN(C)C/C=C/C(=O)Nc1cc2c(Nc3ccc(F)c(Cl)c3)ncnc2cc1OC(F)F.O=C(O)/C=C\C(=O)O.O=C(O)/C=C\C(=O)O` [Mefatinib], the “Duplicate of Duplicate of Hits: No CPE” value in data set [1] worked out at 1. The “antiviral activity at lower concentrations” value with MPXV (2022 Clade IIb) [4] is reported as “potent antiviral activity”.

Regarding `Nc1ccn(C[C@@H](CO)OCP(=O)(O)O)c(=O)n1` [cidofovir], the “serious side effects in clinical trials” value in data set [8] was “kidney toxicity”.

As for `COC1(c2sc3c(N4CCOCC4)nc(-c4cnc(N)nc4)nc3c2C)COC1` [GNE-317], in [1], the “Duplicate of Duplicate of Hits: No CPE” value is given as 1. Further, in the data set on VK2/E6E7 cells, the CC50 was 201 nM and the “concentration at which toxicity was shown” value fell in the range of 80 to 100 nM.

For the compound `O=C(NN1C(=O)[C@@H]2[C@@H]3C=C[C@@H]([C@H]4C[C@@H]34)[C@@H]2C1=O)c1ccc(C(F)(F)F)cc1` [Tecovirimat], the “time to resolution of Mpox-related lesions” value in the data set on Mpox-related lesions is “did not reduce the time to resolution of Mpox-related lesions”. In addition, in the data set with MPXV Clade IIb, the “antiviral activity against MPXV Clade IIb” value was “did not exhibit strong antiviral activity”.

As for `O=C(Nc1ncc([N+](=O)[O-])s1)c1ccc([N+](=O)[O-])c(Cl)c1` [SM-7368], the “Duplicate of Duplicate of Hits: No CPE” value in data set [1] is given as 1. Moreover, the “antiviral activity at lower concentrations” value with MPXV (2022 Clade IIb) [4] is on record as “potent antiviral activity”. Besides, in the data set on MPXV [2], the “skin inflammation and lesions at Day 3” value is “some low-grade inflammation and lesions”; the “skin inflammation and lesions at Day 12” value is given as “fully resolved”. In addition, the “viral protein in cell lysates (Western blot)” value in the data set on MPXV [9] is reported as “substantially reduced”. Moreover, in the data set on VK2/E6E7 cells, the CC50 is more than 1000 nM and the “nontoxic up to a concentration” value is recorded as not above 1000 nM.

Take `COc1cc2ncnc(Nc3ccc(F)c(Cl)c3)c2cc1OCCCN1CCOCC1` [Gefitinib]: the “Duplicate of Duplicate of Hits: No CPE” value in data set [1] is listed as 1. Further, the cowpox virus replication result with cowpox virus was “reduce vaccinia and cowpox virus replication”. Moreover, the vaccinia virus replication entry in the data set on vaccinia virus is “reduce vaccinia and cowpox virus replication”.

For `COc1ncc(-c2ccc3nccc(-c4ccnnc4)c3c2)cc1NS(=O)(=O)c1ccc(F)cc1F` [GSK2126458, Omipalisib], the “Duplicate of Duplicate of Hits: No CPE” value in [1] worked out at 1. For the same compound, the “antiviral activity at lower concentrations” value in the data set with MPXV (2022 Clade IIb) [4] is on record as “potent antiviral activity”.

With IRAK4-IN-6, the “Duplicate of Duplicate of Hits: No CPE” value in [1] was 1. The phospho-NF-κB expression result in the data set on phospho-NF-κB was “significantly increased”. Further, the phospho-STING expression result with phospho-STING was “significantly increased”. In addition, the “visible skin lesions or neutrophil infiltration” value in the data set with MPXV [2] is “none of the mice in the IRAK4-IN-6-treated group had visible skin lesions or neutrophil infiltration”. For the same compound, the “viral protein in cell lysates (Western blot)” value with MPXV [9] is listed as “substantially reduced”. Further, in the data set with VK2/E6E7 cells, the CC50 was more than 1000 nM and the “nontoxic up to a concentration” value was not above 1000 nM.

In the case of PI3K/mTOR Inhibitor-11, in data set [1], the “Duplicate of Duplicate of Hits: No CPE” value is recorded as 1. The “antiviral activity at lower concentrations” value with MPXV (2022 Clade IIb) [4] is reported as “potent antiviral activity”. In the data set on VK2/E6E7 cells, the CC50 turned out to be 421 nM and the “concentration at which toxicity was shown” value lay within 80 to 100 nM.

As to `O=C(NOCCO)c1cc(CN2OCCCC2=O)c(F)c(F)c1Nc1ccc(I)cc1F` [MC-RO4987655, RO4987655], the “Duplicate of Duplicate of Hits: No CPE” value in data set [1] stood at 1.

For `C=CC(=O)N[C@H]1C=C(C)c2c(-c3cnc4ccccc4c3)c3c(N)ncnc3n2C1` [MC-Zipalertinib, Zipalertinib], the “Duplicate of Duplicate of Hits: No CPE” value in data set [1] stood at 1.

For `COc1cc2ncnc(Nc3ccc(F)c(Cl)c3)c2cc1OCCN1CC2(CC2)C2(C1)OCCO2` [MC-Simotinib, Simotinib], in data set [1], the “Duplicate of Duplicate of Hits: No CPE” value is recorded as 1.

On to JNK-IN-7 [MC-JNK-IN-7], for which the “Duplicate of Duplicate of Hits: No CPE” value in data set [1] is reported as 1.

With `O=C(Nc1ccc([N+](=O)[O-])cc1Cl)c1cc(Cl)ccc1O` [Niclosamide], the “Duplicate of Duplicate of Hits: No CPE” value in data set [1] is reported as 1. Further, in the data set with MPXV (2022 Clade IIb) [3], the IC50 was found to be 11.8 nM. The “viral inhibition compared to vehicle treatment (percent viral infectivity, Fig. 2B)” value with MPXV (2022 Clade IIb) [4] is recorded as “strongest viral inhibition”. The CC50 in “in vitro” is 96.3 nM. Besides, in the data set on VK2/E6E7 cells (human), the “concentration at which toxicity was shown” value is 80 to 100 nM.

Regarding `COc1cc(Nc2c(C#N)cnc3cc(OCCCN4CCN(C)CC4)c(OC)cc23)c(Cl)cc1Cl` [LOPAC-Bosutinib, Bosutinib], in data set [1], the “Duplicate of Duplicate of Hits: No CPE” value is 1.

Turning to “(S)-Sunvozertinib [MC-(S)-Sunvozertinib]”, the “Duplicate of Duplicate of Hits: No CPE” value in [1] was determined as 1.

As to `CCOc1cc2ncc(C#N)c(Nc3ccc(F)c(Cl)c3)c2cc1NC(=O)/C=C/CN(C)C` [Pelitinib], the “Duplicate of Duplicate of Hits: No CPE” value in [1] is given as 1. Besides, the “antiviral activity at lower concentrations” value in the data set on MPXV (2022 Clade IIb) [4] is listed as “potent antiviral activity”.

Consider `C#Cc1cccc(Nc2ncnc3cc(OC)c(NC(=O)N4C[C@H]5CCN(C)[C@H]5C4)cc23)c1` [MC-Theliatinib, Theliatinib], for which the “Duplicate of Duplicate of Hits: No CPE” value in [1] was 1.

For the compound `C#Cc1cccc(Nc2ncnc3cc(OCCOC)c(OCCOC)cc23)c1.Cl` [MC-Erlotinib (Hydrochloride), Erlotinib (Hydrochloride)], the “Duplicate of Duplicate of Hits: No CPE” value in data set [1] amounted to 1.

Regarding `COc1cc2ncnc(Nc3ccc(O)c(Br)c3)c2cc1OC` [NKIL-WHI-P154, WHI-P154], in data set [1], the “Duplicate of Duplicate of Hits: No CPE” value is 1.
